Reference: US8557816B2, “Aurora kinase modulators and method of use” (Amgen Inc., priority 2007, dated 2013)

How the values were obtained:
AuroraA-TPX2 = molecular target: T1, AuroraA-TPX2 (Homo sapiens, UniProt O14965); experiment: AuroraA-TPX2 Homogeneous Time Resolved Fluorescent (HTRF) kinase assay; assay type: biochemical; settings: average; read-out: AurA_IC50_IP (uM Avg)
T1 construct: 20 μL of AuroraA-TPX2 KD GST for a final volume of about 41 μL; GST
T1 sequence (O14965 133-383 limits assumed): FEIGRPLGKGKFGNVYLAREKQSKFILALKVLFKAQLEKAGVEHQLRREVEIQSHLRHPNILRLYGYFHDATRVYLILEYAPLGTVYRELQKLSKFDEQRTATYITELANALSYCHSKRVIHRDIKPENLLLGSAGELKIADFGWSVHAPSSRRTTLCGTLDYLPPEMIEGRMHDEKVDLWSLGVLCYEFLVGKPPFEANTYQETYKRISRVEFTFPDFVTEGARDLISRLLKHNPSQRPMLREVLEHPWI
T1 sequence (Q9ULW0 1-43 partner limits assumed): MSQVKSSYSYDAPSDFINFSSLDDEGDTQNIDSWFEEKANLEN
Procedure: AuroraA-TPX2-Homogeneous Time Resolved Fluorescent (HTRF) Kinase Assay:
The Aurora-A HTRF assay begins with Aurora-A in the presence of ATP phosphorylating the biotinylated peptide PLK. The reaction incubates for about 120 min. Detection reagents are added to quench the reaction. These agents stop the reaction by diluting out the enzyme and chelating the metals due to the presence of EDTA. After addition, the assay is incubated overnight to allow the detection reagents to equilibrate.
The AuroraA HTRF assay comprises 1 μL of compound in 100% DMSO, 20 μL of ATP and biotinylated PLK, and 20 μL of AuroraA-TPX2 KD GST for a final volume of about 41 μL. The final concentration of PLK is about 1 μM. […] Buffer conditions are as follows: 60 mM HEPES pH 7.5, 25 mM NaCl, 10 mM MgCl, 2 mM DTT, 0.05% BSA.
(§1) The assay is quenched and stopped with 160 μL of detection reagent. Detection reagents are as follows: Buffer made of 50 mM Tris, pH 7.5, 100 mM NaCl, 3 mM EDTA, 0.05% BSA, 0.1% Tween20. Added to this buffer prior to reading is Steptavidin allophycocyanin (SA-APC) at a final conc in the assay of 0.0005 mg/mL, and europilated anti-phosphoPLK Ab (Eu-anti-PLK) at a final conc of 0.02 nM.
The assay plate is read in either a Discovery or a RubyStar. The eu-anti-PLK is excited at 320 nm and emits at 615 nm to excite the SA-APC which in turn emits at 655 nm.

AuroraB = molecular target: T2, AuroraB (Homo sapiens, UniProt Q96GD4); experiment: AuroraB Homogeneous Time Resolved Fluorescent (HTRF) kinase assay; assay type: biochemical; settings: average; read-out: AurB_IC50_IP (uM Avg)
T2 construct: 20 μL of AuroraB FL H is for a final volume of 41 μL; His
Procedure: AuroraB-Homogeneous Time Resolved Fluorescent (HTRF) Kinase Assay:
The AuroraB HTRF assay begins with AuroraB in the presence of ATP phosphorylating the biotinylated peptide Histone H3. The reaction incubates for about 90 min. the reaction is quenched by addition of detection reagents, which stop the reaction by diluting out the enzyme and chelating the metals due to the presence of EDTA. After addition, the assay is incubated for about 60 min to allow detection reagents to equilibrate.
The AuroraB HTRF assay comprises 1 μL of compound in 100% DMSO, 20 μL of ATP and biotinylated Histone H3, and 20 μL of AuroraB FL H is for a final volume of 41 μL. The final concentration of Histone H3 is 0.1 μM. […] Buffer conditions are as follows: 50 mM HEPES pH 7.5, 5 mM NaCl, 0.5 mM MgCl, 0.5 mM MnCl, 2 mM DTT, 0.05% BSA.
as §1, with “0.001” for “0.0005”, “anti-phosphoHistoneH3” for “anti-phosphoPLK”, “(Eu-anti-HisH3)” for “(Eu-anti-PLK)”, “0.064” for “0.02”
The assay plate is read in either a Discovery or a RubyStar. The eu-anti-HisH3 is excited at 320 nm and emits at 615 nm to excite the SA-APC which in turn emits at 655 nm.

T2 sequence (Q96GD4 whole entry): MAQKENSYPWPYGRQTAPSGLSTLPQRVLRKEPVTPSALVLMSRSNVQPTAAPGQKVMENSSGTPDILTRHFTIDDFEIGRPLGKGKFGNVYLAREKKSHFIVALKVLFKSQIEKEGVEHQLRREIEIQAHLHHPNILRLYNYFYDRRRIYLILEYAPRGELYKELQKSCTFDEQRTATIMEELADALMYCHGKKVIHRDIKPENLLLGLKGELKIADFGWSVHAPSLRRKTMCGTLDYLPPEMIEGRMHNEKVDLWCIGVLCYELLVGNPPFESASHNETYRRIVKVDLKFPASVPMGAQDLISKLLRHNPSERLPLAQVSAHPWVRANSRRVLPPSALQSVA

IC50 (AuroraA-TPX2) [µM] | IC50 (AuroraB) [µM] | Structure (SMILES)
0.532 | 0.645 | COc1cnc2c([S+]([O-])c3ccc(Nc4nnc(-c5ccc(F)cc5)c5ccccc45)cc3)ccnc2c1 (stereo not drawn) [Example 410, 4-(4-fluorophenyl)-N-(4-(7-methoxy-1,5-naphthyridin-4-ylsulfinyl)phenyl)phthalazin-1-amine]
0.86 | 0.023 | COc1cnc2c(N(C)c3ccc(Nc4nnc(-c5ccccc5)c5ccccc45)cc3)ccnc2c1 [compound 51, N-methyl-N-(7-(methyloxy)-1,5-naphthyridin-4-yl)-N′-(4-phenyl-1-phthalazinyl)-1,4-benzenediamine]
0.034 | 0.106 | COc1cc2nccc(Oc3ccc(Nc4nnc(-c5cccs5)c5ccccc45)cc3F)c2cc1OC [compound 76, N-(4-((6,7-bis(methyloxy)-4-quinolinyl)oxy)-3-fluorophenyl)-4-(2-thienyl)-1-phthalazinamine]
0.701 | 0.079 | COc1cc2nccc(Oc3ccc(Nc4nnc(-n5nc(C)cc5C)c5ccccc45)cc3F)c2cc1OC [compound 77, N-(4-((6,7-bis(methyloxy)-4-quinolinyl)oxy)-3-fluorophenyl)-4-(3,5-dimethyl-1H-pyrazol-1-yl)-1-phthalazinamine]
0.414 | 0.041 | COc1cnc2c(Oc3ccc(Nc4nnc(-c5cc(F)ccc5OC)c5ccccc45)cc3)ccnc2c1 [compound 80, 4-(5-fluoro-2-(methyloxy)phenyl)-N-(4-((7-(methyloxy)-1,5-naphthyridin-4-yl)oxy)phenyl)-1-phthalazinamine]
0.012 | 0.006 | COc1cnc2c(Oc3ccc(Nc4nnc(-c5ccc(C)cc5)c5ccccc45)cc3)ccnc2c1 [compound 81, N-(4-((7-(methyloxy)-1,5-naphthyridin-4-yl)oxy)phenyl)-4-(4-methylphenyl)-1-phthalazinamine]
0.142 | 0.013 | COc1ccc(F)cc1-c1nnc(Nc2ccc(Oc3ccnc4cc(C#N)ccc34)cc2)c2ccccc12 [compound 87, 4-((4-((4-(5-fluoro-2-(methyloxy)phenyl)-1-phthalazinyl)amino)phenyl)oxy)-7-quinolinecarbonitrile]
0.019 | 0.025 | COc1cc2nccc(Oc3ccc(Nc4nnc(-c5ccccc5)c5ccccc45)cc3)c2cc1OC [compound 90, N-(4-((6,7-bis(methyloxy)-4-quinolinyl)oxy)phenyl)-4-phenyl-1-phthalazinamine]
0.054 | 0.012 | COc1ccc2c(Oc3ccc(Nc4nnc(-c5ccccc5)c5ccccc45)cc3)ccnc2c1 [compound 91, N-(4-((7-(methyloxy)-4-quinolinyl)oxy)phenyl)-4-phenyl-1-phthalazinamine]
0.027 | 0.001 | CN1CCN(c2nnc(Nc3ccc(Oc4ccnc5cc(C#N)ccc45)cc3)c3ccccc23)CC1 [compound 94, 4-((4-((4-(4-methyl-1-piperazinyl)-1-phthalazinyl)amino)phenyl)oxy)-7-quinolinecarbonitrile]

The next lines start with the molecule.

Structure (SMILES) | IC50 (AuroraA-TPX2) [µM] | IC50 (AuroraB) [µM]
CCc1cc(-c2ccccc2)nnc1Nc1ccc(Oc2ccnc3cc(C(N)=O)ccc23)cc1 [compound 49, 4-((4-((4-ethyl-6-phenyl-3-pyridazinyl)amino)phenyl)oxy)-7-quinolinecarboxamide] | 0.021 | 0.001
COc1cc2nccc(Oc3ccc(Nc4nnc(-c5ccc(C)c(C)c5)c5ccccc45)cc3)c2cc1OC [compound 74, N-(4-((6,7-bis(methyloxy)-4-quinolinyl)oxy)phenyl)-4-(3,4-dimethylphenyl)-1-phthalazinamine] | 0.014 | 0.032
COc1cc2nccc(Oc3ccc(Nc4nnc(N5CCCCC5)c5ccccc45)cc3)c2cc1OC [compound 75, N-(4-((6,7-bis(methyloxy)-4-quinolinyl)oxy)phenyl)-4-(1-piperidinyl)-1-phthalazinamine] | 0.023 | 0.042
NC(=O)c1cc2nccc(Oc3ccc(Nc4nnc(-c5ccccc5)c5ccccc45)cc3F)c2s1 [compound 78, 7-((2-fluoro-4-((4-phenyl-1-phthalazinyl)amino)phenyl)oxy)thieno-[3,2-b]pyridine-2-carboxamide] | 0.022 | 0.004
COc1cnc2c(Oc3ccc(Nc4nnc(-c5ccccc5)c5ccccc45)cc3)ccnc2c1 [compound 79, N-(4-((7-(methyloxy)-1,5-naphthyridin-4-yl)oxy)phenyl)-4-phenyl-1-phthalazinamine] | 0.028 | 0.008
COc1cnc2c(Oc3ccc(Nc4nnc(-c5nc(C)cs5)c5ccccc45)cc3)ccnc2c1 [compound 82, N-(4-((7-(methyloxy)-1,5-naphthyridin-4-yl)oxy)phenyl)-4-(4-methyl-1,3-thiazol-2-yl)-1-phthalazinamine] | 0.013 | 0.006
CCc1cc(-c2ccccc2)nnc1Nc1ccc(Oc2ccnc3cc(OC)cnc23)nc1 [compound 83, 4-ethyl-N-(6-((7-(methyloxy)-1,5-naphthyridin-4-yl)oxy)-3-pyridinyl)-6-phenyl-3-pyridazinamine] | 0.08 | 0.01
COc1cnc2c(Oc3cnc(Nc4nnc(-c5ccccc5)c5ccccc45)nc3)ccnc2c1 [compound 84, N-(5-((7-(methyloxy)-1,5-naphthyridin-4-yl)oxy)-2-pyrimidinyl)-4-phenyl-1-phthalazinamine] | 0.16 | 0.002
COc1cnc2c(Oc3ccc(Nc4nnc(N5CCN(C)CC5)c5ccccc45)cc3)ccnc2c1 [compound 85, N-(4-((7-(methyloxy)-1,5-naphthyridin-4-yl)oxy)phenyl)-4-(4-methyl-1-piperazinyl)-1-phthalazinamine] | 0.066 | 0.004
Cc1csc(-c2nnc(Nc3ccc(Oc4ccnc5cc(C#N)ccc45)cc3)c3ccccc23)n1 [compound 86, 4-((4-((4-(4-methyl-1,3-thiazol-2-yl)-1-phthalazinyl)amino)phenyl)oxy)-7-quinolinecarbonitrile] | 0.031 | 0.014
Cc1ccc(-c2nnc(Nc3ccc(Oc4ccnc5cc(C#N)ccc45)cc3)c3ccccc23)cc1 [compound 88, 4-((4-((4-(4-methylphenyl)-1-phthalazinyl)amino)phenyl)oxy)-7-quinolinecarbonitrile] | 0.006 | 0.003
COc1cnc2c(Oc3ccc(Nc4nnc(-c5ccccc5)c5ccccc45)cc3F)ccnc2c1 [compound 89, N-(3-fluoro-4-((7-(methyloxy)-1,5-naphthyridin-4-yl)oxy)phenyl)-4-phenyl-1-phthalazinamine] | 0.012 | 0.007
COc1cnc2c(Oc3ccc(Nc4nnc(N5CCN6CCCC6C5)c5ccccc45)cc3)ccnc2c1 (stereo not drawn) [compound 92, 4-(hexahydropyrrolo[1,2-a]pyrazin-2(1H)-yl)-N-(4-((7-(methyloxy)-1,5-naphthyridin-4-yl)oxy)phenyl)-1-phthalazinamine] | 0.007 | 0.003
N#Cc1ccc2c(Oc3ccc(Nc4nnc(-c5cccc(O)c5)c5ccccc45)cc3)ccnc2c1 [compound 93, 4-((4-((4-(3-hydroxyphenyl)-1-phthalazinyl)amino)phenyl)oxy)-7-quinolinecarbonitrile] | 0.008 | 0.001
